# Laboratory results as given in US11773084B1, “4-arylamino-2-(6-indolylamino)pyrimidine compounds as antibacterial agents” (KING FAISAL UNIVERSITY, priority 2023, dated 2023).
# Read-outs that look alike come from different tables or passages of the source.
# Assays:
# [1] = test system: Staphylococcus aureus ATCC 29213; assay: In vitro antibacterial activity (CLSI M07-A10 dilution MIC); format: cell-based; settings: ATCC29213
# [2] = test system: Staphylococcus aureus ATCC BAA-1556 (MERSA resistant); assay: as above; format: cell-based; settings: ATCCBAA1556
# [3] = test system: Staphylococcus epidermidis; assay: as above; format: cell-based
# [4] = test system: Bacillus subtilis MTCC 441; assay: as above; format: cell-based; settings: MTCC441
# [5] = test system: Enterococcus faecium ATCC 35667; assay: as above; format: cell-based; settings: ATCC35667
# [6] = test system: Enterococcus faecium ATCC 51559 (VRE resistant); assay: as above; format: cell-based
# [7] = test system: Klebsiella pneumonia MTCC 618; assay: as above; format: cell-based; settings: Klebsiella pneumoniae, MTCC618
# [8] = test system: Escherichia coli MTCC 443; assay: as above; format: cell-based
# [9] = test system: Mycobacterium tuberculosis H37Rv strain; assay: Anti-tubercular alamar blue microplate MIC assay; format: cell-based; settings: seven days 37° C.
# DNA gyrase from E. coli = target: T1, DNA gyrase from E. coli (Escherichia coli, UniProt P0AES4+P0AES6); assay: E. coli DNA gyrase inhibition (Inspiralis assay); format: biochemical
# T1 construct: purchased Inspiralis
# Experimental: First, the plates were rehydrated with buffer (20 mM Tris-HCl with pH 7.6, 0.01% w/v BSA, 0.05% v/v Tween 20, 137 mM NaCl) and the biotinylated oligonucleotide was then immobilized. After washing off the unbound oligonucleotide, the enzyme test was performed. […] Reaction solutions were incubated at 37° C. for 30 min. After that, the TF buffer (50 mM NaOAc with pH 5.0, 50 mM NaCl and 50 mM MgCl2) was added to terminate the enzymatic reaction. After additional incubation for 30 min at rt, during which biotinoligonucleotide-plasmid triplex was formed, the unbound plasmid was washed off using TF buffer and SybrGOLD in T10 buffer (10 mM Tris HCl with pH 8.0 and 1 mM EDTA) was added. The fluorescence was measured with a microplate reader (BioTek Synergy H4, excitation: 485 nm, emission: 535 nm). […] GraphPad Prism software was used to calculate the IC50 values. The result is given as the average value of three independent measurements.
# [10] = Escherichia coli MTCC 443 + PABN
# T1 sequence (P0AES4 whole entry, one chain of several): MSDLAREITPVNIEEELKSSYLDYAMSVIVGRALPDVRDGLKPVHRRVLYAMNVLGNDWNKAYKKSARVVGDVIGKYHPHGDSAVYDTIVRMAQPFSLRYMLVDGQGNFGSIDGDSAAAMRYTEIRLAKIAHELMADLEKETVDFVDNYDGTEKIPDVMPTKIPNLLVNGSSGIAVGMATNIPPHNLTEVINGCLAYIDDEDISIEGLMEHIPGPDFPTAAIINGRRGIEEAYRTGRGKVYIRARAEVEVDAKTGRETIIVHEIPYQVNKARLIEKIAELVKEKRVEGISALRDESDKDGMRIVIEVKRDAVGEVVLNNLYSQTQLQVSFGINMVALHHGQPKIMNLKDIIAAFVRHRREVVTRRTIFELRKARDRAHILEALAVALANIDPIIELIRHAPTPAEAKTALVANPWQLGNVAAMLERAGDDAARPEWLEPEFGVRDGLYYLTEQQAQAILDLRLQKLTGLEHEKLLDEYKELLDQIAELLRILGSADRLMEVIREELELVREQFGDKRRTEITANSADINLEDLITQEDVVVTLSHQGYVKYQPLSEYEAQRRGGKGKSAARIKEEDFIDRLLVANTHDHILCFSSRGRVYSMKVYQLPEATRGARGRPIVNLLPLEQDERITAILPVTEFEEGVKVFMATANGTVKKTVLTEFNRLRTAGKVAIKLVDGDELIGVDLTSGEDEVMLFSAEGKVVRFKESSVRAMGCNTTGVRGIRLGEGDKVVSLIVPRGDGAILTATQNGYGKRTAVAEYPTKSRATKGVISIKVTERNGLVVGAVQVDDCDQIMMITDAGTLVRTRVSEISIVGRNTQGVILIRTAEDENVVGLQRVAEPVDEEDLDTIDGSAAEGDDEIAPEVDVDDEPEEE
Compound,MIC ([1]; Staphylococcus aureus),MIC ([2]; Staphylococcus aureus),MIC [3],MIC ([4]; Bacillus subtilis),MIC ([5]; Enterococcus faecium),MIC ([6]; Enterococcus faecium),MIC [7],"MIC [8, 10]","MIC ([8]; Escherichia coli, MTCC443)","MIC ([1]; Staphylococcus aureus ATCC 29213, read-out: MIC)","MIC ([2]; Staphylococcus aureus ATCC BAA-1556 (MERSA resistant), read-out: MIC)",MIC ([3]; read-out: MIC),"MIC ([4]; Bacillus subtilis MTCC 441, read-out: MIC)","MIC ([5]; Enterococcus faecium ATCC 35667, read-out: MIC)","MIC ([6]; Enterococcus faecium ATCC 51559 (VRE resistant), read-out: MIC)","MIC ([7]; Klebsiella pneumonia MTCC 618, read-out: MIC)","MIC ([8]; MTCC443, Escherichia coli MTCC 443, read-out: MIC)",anti-mycobacterial activity (MIC) [9],IC50 (DNA gyrase from E. coli)
"CN[C@H](CC(C)C)C(=O)N[C@H]1C(=O)N[C@@H](CC(N)=O)C(=O)N[C@H]2C(=O)N[C@H]3C(=O)N[C@H](C(=O)N[C@H](C(=O)O)c4cc(O)cc(O)c4-c4cc3ccc4O)[C@H](O)c3ccc(c(Cl)c3)Oc3cc2cc(c3O[C@@H]2O[C@H](CO)[C@@H](O)[C@H](O)[C@H]2O[C@H]2C[C@](C)(N)[C@H](O)[C@H](C)O2)Oc2ccc(cc2Cl)[C@H]1O [Vancomycin, reference compound]",1 µg/mL,1 µg/mL,1 µg/mL,0.5 µg/mL,0.5 µg/mL,> 128 µg/mL,> 128 µg/mL,>128 µg/mL,> 128 µg/mL,–,–,–,–,–,–,–,–,–,–
"CCCCCN(C)Cc1cc(C(=O)O)ccc1Nc1ccnc(Nc2ccc3cc(C)[nH]c3c2)n1 [Example 8, 3-((methyl(pentyl)amino)methyl)-4-((2-((2-methyl-1H-indol-6-yl)amino)pyrimidin-4-yl)amino)benzoic acid]",–,–,–,–,–,–,–,2 µg/mL,–,4 µg/mL,4 µg/mL,8 µg/mL,2 µg/mL,2 µg/mL,4 µg/mL,2 µg/mL,32 µg/mL,8 micro-g/mL,315 nM
